Key:
central eye artery = assay: blood circulation in the central eye artery under model ischemia-reperfusion; format: in vivo; settings: rats, intravenous, doses of 3, 5, 10, 20 and 100 mg/kg
NMDA-receptors = assay: blocking/unblocking of NMDA-receptors; settings: stated property, no test described
[1] = system: ischemia-reperfusion eye model
[2] = rats, parenteral, within 96 hours of ischemia, doses of 3, 5, 10, 20 and 100 mg/kg

OC(COCCC12CC3CC(CC(C3)C1)C2)CN1CCOCC1 (stereo not shown) [1-adamantylethyloxy-3-morpholino-2-propanol]
blood circulation in the central eye artery (central eye artery): stimulates | blocking/unblocking NMDA-receptors (NMDA-receptors): fast blocking/unblocking | disturbed indicators of acid-alkali balance, oxidative stress and energy metabolism in the retina [1, 2]: promoted the normalization | number of apoptotic and necrotic cells in eye posterior part [1, 2]: reduces | perivascular edema in the retina and optic nerve [1, 2]: attenuated | retinal manifestations of endothelial dysfunction and nitrosating stress [1, 2]: promoted the reduction | neuroprotective properties under ischemic-hypoxic injury of retina and optic nerve ([1]; summary of the studies, composition concentration range 3-100 mg/ml): expressed neuroprotective properties

Source: patent US9545409B2 (priority 2012, dated 2017)
